The text below walks through data of ChEMBL document CHEMBL5729401, “Inhibitors of Rho associated coiled-coil containing protein kinase” (2022).

The IC50 is the concentration that gives 50% inhibition.

For the assay, the target named is Rho-associated protein kinase 2 (Homo sapiens, UniProt O75116). In words: Z-lyte assay: Compounds activities were measured by Z'-lyte kinase kit (ThermoFisher Scientific). The percent inhibition rate was calculated by normalizing the kinase activity value obtained with 1 μM compound treatment against DMSO control value. IC50s were calculated using the GraphPad Prism software with kinase activities data that were collected from 9 points serial dilution of compounds treatment.
Rho-associated protein kinase 2, sequence (O75116 whole entry): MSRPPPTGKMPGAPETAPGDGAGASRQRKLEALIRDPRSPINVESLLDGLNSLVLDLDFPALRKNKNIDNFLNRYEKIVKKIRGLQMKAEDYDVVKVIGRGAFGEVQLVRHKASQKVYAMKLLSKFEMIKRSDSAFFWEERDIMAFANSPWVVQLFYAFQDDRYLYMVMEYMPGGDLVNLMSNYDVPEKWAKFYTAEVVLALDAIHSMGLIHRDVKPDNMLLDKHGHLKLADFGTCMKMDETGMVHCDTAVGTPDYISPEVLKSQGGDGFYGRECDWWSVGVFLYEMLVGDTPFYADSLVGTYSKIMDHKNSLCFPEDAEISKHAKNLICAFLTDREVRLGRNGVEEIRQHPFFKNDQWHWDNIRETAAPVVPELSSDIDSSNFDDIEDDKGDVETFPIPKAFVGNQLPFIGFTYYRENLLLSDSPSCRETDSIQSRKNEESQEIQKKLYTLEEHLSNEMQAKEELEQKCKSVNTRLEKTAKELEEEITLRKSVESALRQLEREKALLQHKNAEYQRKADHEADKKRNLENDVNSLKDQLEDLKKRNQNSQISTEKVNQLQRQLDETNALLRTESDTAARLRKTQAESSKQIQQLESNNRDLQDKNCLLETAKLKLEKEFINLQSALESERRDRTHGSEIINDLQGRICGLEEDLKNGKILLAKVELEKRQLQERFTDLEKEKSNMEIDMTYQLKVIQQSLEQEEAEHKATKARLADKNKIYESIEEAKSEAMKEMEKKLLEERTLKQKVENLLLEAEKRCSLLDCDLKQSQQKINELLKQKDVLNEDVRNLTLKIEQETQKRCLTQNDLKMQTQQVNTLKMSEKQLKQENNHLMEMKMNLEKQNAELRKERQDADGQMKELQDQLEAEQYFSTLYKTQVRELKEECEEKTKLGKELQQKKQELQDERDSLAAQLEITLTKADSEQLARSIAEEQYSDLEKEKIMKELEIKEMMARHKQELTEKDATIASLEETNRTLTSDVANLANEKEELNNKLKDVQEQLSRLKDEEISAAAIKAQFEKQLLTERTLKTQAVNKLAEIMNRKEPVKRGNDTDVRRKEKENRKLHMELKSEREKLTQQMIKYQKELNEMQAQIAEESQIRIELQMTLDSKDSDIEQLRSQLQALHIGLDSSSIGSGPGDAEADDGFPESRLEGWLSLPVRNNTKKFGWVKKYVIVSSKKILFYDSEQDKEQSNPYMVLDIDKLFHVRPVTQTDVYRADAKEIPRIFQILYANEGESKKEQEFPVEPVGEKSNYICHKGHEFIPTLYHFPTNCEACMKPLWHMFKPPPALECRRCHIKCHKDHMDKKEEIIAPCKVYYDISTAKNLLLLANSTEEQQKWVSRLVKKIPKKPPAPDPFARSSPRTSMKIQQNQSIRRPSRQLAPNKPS

Consider `CNC(C(=O)Nc1ccc(-c2cn[nH]c2)cc1)c1ccc(OC)c(F)c1` (stereo unspecified), for which the IC50 is 21 nM.
